Reference: US9833497B2, “Human originated EGF domain proteins and use of the same” (CHENGDU SOURCEBIO LIMITED-LIABILITY COMPANY, priority 2013, dated 2017)

Experiments:
Assay type in all cases: cell-based
[1] = tested on: E. coli DH5α; assay: Antibacterial activity: MIC and growth curve against E. coli DH5α in 96-well plate; settings: minimal inhibitory concentration against E. coli DH5α; 96-well plate, 5×10^5 CFU/mL, 37° C., judged after 8 h
How it was run: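 Log-phase DH5α (OD600 about 0.5, 37° C, 185 rpm in LB) was pelleted, resuspended in fresh LB and seeded at 5×10^5 CFU/mL with recombinant protein at 50, 25 and 12.5 μg/mL (two-fold series), in triplicate. Plates were shaken at 175 rpm, 37° C, and OD600 was read every 30 min. MIC was the lowest concentration with no growth.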

[2] = tested on: E. coli BL21; assay: MIC against Gram-negative bacteria: E. coli BL21
How it was run: (§1)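 Bacteria grown in LB at 37° C with shaking to McFarland 0.5, pelleted and resuspended in fresh LB, then seeded at 5×10^5 CFU/mL per well. Purified recombinant human EGF domain proteins were two-fold serially diluted in triplicate and plates shaken at 37° C, 175 rpm. MIC is the lowest protein concentration with no bacterial growth.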

[3] = tested on: Pseudomonas aeruginosa; assay: MIC against Gram-negative bacteria: Pseudomonas aeruginosa
How it was run: as §1

[4] = tested on: Klebsiella pneumonia; assay: MIC against Gram-negative bacteria: Klebsiella pneumonia
How it was run: as §1

[5] = tested on: Enterobacter cloacae; assay: MIC against Gram-negative bacteria: Enterobacter cloacae
How it was run: as §1

[6] = tested on: Aeromonas hydrophila; assay: MIC against Gram-negative bacteria: Aeromonas hydrophila
How it was run: as §1

[7] = tested on: Citrobacter diversus; assay: MIC against Gram-negative bacteria: Citrobacter diversus
How it was run: as §1

[8] = tested on: Moraxella catarrhalis; assay: MIC against Gram-negative bacteria: Moraxella catarrhalis
How it was run: as §1

[9] = tested on: Proteus mirabilis; assay: MIC against Gram-negative bacteria: Proteus mirabilis
How it was run: as §1

[10] = tested on: Proteus vulgaris; assay: MIC against Gram-negative bacteria: Proteus vulgaris
How it was run: as §1

[11] = tested on: Serratia marcescens; assay: MIC against Gram-negative bacteria: Serratia marcescens
How it was run: as §1

[12] = E. coli BL21, 10 h cultivation at 37° C., 5×10^5 CFU/mL
[13] = P. aeruginosa, 10 h cultivation at 37° C., 5×10^5 CFU/mL
[14] = K. pneumonia, 10 h cultivation at 37° C., 5×10^5 CFU/mL
[15] = E. cloacae, 10 h cultivation at 37° C., 5×10^5 CFU/mL
[16] = A. hydrophila, 10 h cultivation at 37° C., 5×10^5 CFU/mL
[17] = C. diversus, 10 h cultivation at 37° C., 5×10^5 CFU/mL
[18] = M. catarrhalis, 10 h cultivation at 37° C., 5×10^5 CFU/mL
[19] = P. mirabilis, 10 h cultivation at 37° C., 5×10^5 CFU/mL
[20] = P. vulgaris, 10 h cultivation at 37° C., 5×10^5 CFU/mL
[21] = S. marcescens, 10 h cultivation at 37° C., 5×10^5 CFU/mL
[22] = E. coli BL21, 10 h cultivation at 37° C.
[23] = P. aeruginosa, 10 h cultivation at 37° C.
[24] = K. pneumonia, 10 h cultivation at 37° C.
[25] = E. cloacae, 10 h cultivation at 37° C.
[26] = A. hydrophila, 10 h cultivation at 37° C.
[27] = C. diversus, 10 h cultivation at 37° C.
[28] = M. catarrhalis, 10 h cultivation at 37° C.
[29] = P. mirabilis, 10 h cultivation at 37° C.
[30] = P. vulgaris, 10 h cultivation at 37° C.
[31] = S. marcescens, 10 h cultivation at 37° C.
[32] = E. coli BL21, 5×10^5 CFU/mL, 10 h cultivation at 37° C.
[33] = Pseudomonas aeruginosa, 5×10^5 CFU/mL, 10 h cultivation at 37° C.
[34] = Klebsiella pneumonia, 5×10^5 CFU/mL, 10 h cultivation at 37° C.
[35] = Enterobacter cloacae, 5×10^5 CFU/mL, 10 h cultivation at 37° C.
[36] = Aeromonas hydrophila, 5×10^5 CFU/mL, 10 h cultivation at 37° C.
[37] = Citrobacter diversus, 5×10^5 CFU/mL, 10 h cultivation at 37° C.
[38] = Moraxella catarrhalis, 5×10^5 CFU/mL, 10 h cultivation at 37° C.
[39] = Proteus mirabilis, 5×10^5 CFU/mL, 10 h cultivation at 37° C.
[40] = Proteus vulgaris, 5×10^5 CFU/mL, 10 h cultivation at 37° C.
[41] = Serratia marcescens, 5×10^5 CFU/mL, 10 h cultivation at 37° C.
[42] = 10 h cultivation at 37° C., 5×10^5 CFU/mL, two-fold serial dilution
[43] = E. coli BL21, 96-well plate, 5×10^5 CFU/mL, 37° C., 10 h
[44] = Pseudomonas aeruginosa, 96-well plate, 5×10^5 CFU/mL, 37° C., 10 h
[45] = Klebsiella pneumonia, 96-well plate, 5×10^5 CFU/mL, 37° C., 10 h
[46] = Enterobacter cloacae, 96-well plate, 5×10^5 CFU/mL, 37° C., 10 h
[47] = Aeromonas hydrophila, 96-well plate, 5×10^5 CFU/mL, 37° C., 10 h
[48] = Citrobacter diversus, 96-well plate, 5×10^5 CFU/mL, 37° C., 10 h
[49] = Moraxella catarrhalis, 96-well plate, 5×10^5 CFU/mL, 37° C., 10 h
[50] = Proteus mirabilis, 96-well plate, 5×10^5 CFU/mL, 37° C., 10 h
[51] = Proteus vulgaris, 96-well plate, 5×10^5 CFU/mL, 37° C., 10 h
[52] = Serratia marcescens, 96-well plate, 5×10^5 CFU/mL, 37° C., 10 h
[53] = 96-well plate, 5×10^5 CFU/mL, 37° C., 10 h

PRT818 (DCRSACNCTAGAACDAVNGSCLCPAGRRGPRCA; listed as Homo sapiens)
MIC [1]: 25 µg/mL | MIC (μg/mL) E. coli BL21 [2, 12]: 50 µg/mL | MIC (μg/mL) P. aeruginosa [3, 13]: 25 µg/mL | MIC (μg/mL) K. pneumonia [4, 14]: 12.5 µg/mL | MIC (μg/mL) E. cloacae [5, 15]: 12.5 µg/mL | MIC (μg/mL) A. hydrophila [6, 16]: 25 µg/mL | MIC (μg/mL) C. diversus [7, 17]: 12.5 µg/mL | MIC (μg/mL) M. catarrhalis [8, 18]: 25 µg/mL | MIC (μg/mL) P. mirabilis [9, 19]: 25 µg/mL | MIC (μg/mL) P. vulgaris [10, 20]: 12.5 µg/mL | MIC (μg/mL) S. marcescens [11, 21]: 12.5 µg/mL

PRT312 (DNNECTSDINLCGSKGICQNTPGSFTCECQRGFSLDQTGSSCE; listed as Homo sapiens)
MIC [1]: 50 µg/mL | MIC [2, 12]: 12.5 µg/mL | MIC [3, 13]: 50 µg/mL | MIC [4, 14]: 25 µg/mL | MIC [5, 15]: 12.5 µg/mL | MIC [6, 16]: 25 µg/mL | MIC [7, 17]: 50 µg/mL | MIC [8, 18]: 25 µg/mL | MIC [9, 19]: 12.5 µg/mL | MIC [10, 20]: 25 µg/mL | MIC [11, 21]: 50 µg/mL

PRT999 (PEDNCTCHHGHCQRSSCVCDVGWTGPECE; listed as Homo sapiens)
MIC [1]: 12.5 µg/mL | MIC [2, 22]: 50 µg/mL | MIC [3, 23]: 25 µg/mL | MIC [4, 24]: 12.5 µg/mL | MIC [5, 25]: 25 µg/mL | MIC [6, 26]: 50 µg/mL | MIC [7, 27]: 12.5 µg/mL | MIC [8, 28]: 25 µg/mL | MIC [9, 29]: 50 µg/mL | MIC [10, 30]: 25 µg/mL | MIC [11, 31]: 12.5 µg/mL

PRT955 (DVDECLLQPNACQNGGTCANRNGGYGCVCVNGWSGDDCS; listed as Homo sapiens)
MIC [1]: 50 µg/mL | MIC [2, 22]: 12.5 µg/mL | MIC [3, 23]: 25 µg/mL | MIC [4, 24]: 12.5 µg/mL | MIC [5, 25]: 25 µg/mL | MIC [6, 26]: 12.5 µg/mL | MIC [7, 27]: 25 µg/mL | MIC [8, 28]: 12.5 µg/mL | MIC [9, 29]: 12.5 µg/mL | MIC [10, 30]: 25 µg/mL | MIC [11, 31]: 12.5 µg/mL

PRT1378 (AIQTCPGDCRGRGECHDGSCVCKDGYAGEDCG; listed as Homo sapiens)
MIC [1]: 50 µg/mL | MIC against E. coli BL21 [2, 32]: 25 µg/mL | MIC against P. aeruginosa [3, 33]: 12.5 µg/mL | MIC against K. pneumonia [4, 34]: 25 µg/mL | MIC against E. cloacae [5, 35]: 12.5 µg/mL | MIC against A. hydrophila [6, 36]: 12.5 µg/mL | MIC against C. diversus [7, 37]: 25 µg/mL | MIC against M. catarrhalis [8, 38]: 12.5 µg/mL | MIC against P. mirabilis [9, 39]: 25 µg/mL | MIC against P. vulgaris [10, 40]: 12.5 µg/mL | MIC against S. marcescens [11, 41]: 25 µg/mL

PRT1106 (NTDECASQPCLHGGLCVDGENRYSCNCTGSGFTGTHCE; listed as Homo sapiens)
MIC [1]: 25 µg/mL | MIC E. coli BL21 [2, 42]: 25 µg/mL | MIC P. aeruginosa [3, 42]: 12.5 µg/mL | MIC K. pneumonia [4, 42]: 25 µg/mL | MIC E. cloacae [5, 42]: 50 µg/mL | MIC A. hydrophila [6, 42]: 12.5 µg/mL | MIC C. diversus [7, 42]: 25 µg/mL | MIC M. catarrhalis [8, 42]: 50 µg/mL | MIC P. mirabilis [9, 42]: 25 µg/mL | MIC P. vulgaris [10, 42]: 12.5 µg/mL | MIC S. marcescens [11, 42]: 50 µg/mL

PRT1474 (IPDQCSPLPCNEDGYMSCKDGKASFTCTCKPGWQGEKCE; listed as Homo sapiens)
MIC [1]: 50 µg/mL | MIC against E. coli BL21 [2, 32]: 12.5 µg/mL | MIC against P. aeruginosa [3, 33]: 25 µg/mL | MIC against K. pneumonia [4, 34]: 25 µg/mL | MIC against E. cloacae [5, 35]: 50 µg/mL | MIC against A. hydrophila [6, 36]: 25 µg/mL | MIC against C. diversus [7, 37]: 12.5 µg/mL | MIC against M. catarrhalis [8, 38]: 25 µg/mL | MIC against P. mirabilis [9, 39]: 50 µg/mL | MIC against P. vulgaris [10, 40]: 12.5 µg/mL | MIC against S. marcescens [11, 41]: 25 µg/mL

PRT13 (PARSCAEEPCGAGTCKETEGHVICLCPPGYTGEHCN; listed as Homo sapiens)
MIC [1]: 25 µg/mL | MIC (μg/mL) E. coli BL21 [2, 43]: 12.5 µg/mL | MIC (μg/mL) P. aeruginosa [3, 44]: 12.5 µg/mL | MIC (μg/mL) K. pneumonia [4, 45]: 25 µg/mL | MIC (μg/mL) E. cloacae [5, 46]: 12.5 µg/mL | MIC (μg/mL) A. hydrophila [6, 47]: 12.5 µg/mL | MIC (μg/mL) C. diversus [7, 48]: 25 µg/mL | MIC (μg/mL) M. catarrhalis [8, 49]: 12.5 µg/mL | MIC (μg/mL) P. mirabilis [9, 50]: 50 µg/mL | MIC (μg/mL) P. vulgaris [10, 51]: 25 µg/mL | MIC (μg/mL) S. marcescens [11, 52]: 12.5 µg/mL

PRT1262 (DVDECSMSNGSCDQGCVNTKGSYECVCPPGRRLHWNGKDCV; listed as Homo sapiens)
MIC [1]: 12.5 µg/mL | MIC against E. coli BL21 [2, 43]: 25 µg/mL | MIC against P. aeruginosa [3, 44]: 12.5 µg/mL | MIC against K. pneumonia [4, 45]: 25 µg/mL | MIC against E. cloacae [5, 46]: 12.5 µg/mL | MIC against A. hydrophila [6, 47]: 50 µg/mL | MIC against C. diversus [7, 48]: 12.5 µg/mL | MIC against M. catarrhalis [8, 49]: 50 µg/mL | MIC against P. mirabilis [9, 50]: 12.5 µg/mL | MIC against P. vulgaris [10, 51]: 50 µg/mL | MIC against S. marcescens [11, 52]: 25 µg/mL

PRT481 (EITACSSSPCFHDGTCVLDKAGSYKCACLAGYTGQRCE; listed as Homo sapiens)
MIC [1]: 25 µg/mL | MIC against E. coli BL21 [2, 53]: 12.5 µg/mL | MIC against P. aeruginosa [3, 53]: 25 µg/mL | MIC against K. pneumonia [4, 53]: 50 µg/mL | MIC against E. cloacae [5, 53]: 12.5 µg/mL | MIC against A. hydrophila [6, 53]: 50 µg/mL | MIC against C. diversus [7, 53]: 12.5 µg/mL | MIC against M. catarrhalis [8, 53]: 50 µg/mL | MIC against P. mirabilis [9, 53]: 12.5 µg/mL | MIC against P. vulgaris [10, 53]: 50 µg/mL | MIC against S. marcescens [11, 53]: 12.5 µg/mL
